Source: US20080009418A1, “Selective Inhibitors” (Alchemia LTD., priority 2004, published 2008)

Legend:
Human μ-opioid (MOP) = molecular target: T1, Human μ-opioid (MOP) (Homo sapiens, UniProt P35372); assay: Radioligand binding, human μ-opioid (MOP) membranes, FlashPlate, [3H]-Naloxone; conditions: compound at 10 μM; for A7 radioligand binding inhibition: human μ-opioid (MOP) membranes
T1 construct: purchased Perkin Elmer Biosignal
Summary of the method: (§1)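 Cloned human receptor membranes were coated onto FlashPlate wells and incubated with radioligand and compound (added from a 0.5 mM DMSO daughter plate) for 1 hour at room temperature in the dark. Scintillation counting gave percent inhibition, with DMSO defining total and reference ligand defining non-specific binding.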

Human melanocortin (MC5) = molecular target: T2, Human melanocortin (MC5) (Homo sapiens, UniProt P33032); assay: Radioligand binding, human melanocortin MC5 membranes, FlashPlate, [125I]-NDP-αMSH; conditions: compound at 10 μM; for A5 radioligand binding inhibition: human melanocortin MC5 membranes
T2 construct: purchased Perkin Elmer Biosignal
Summary of the method: as §1

[1] = molecular target: T3, Human melanin-concentrating hormone (MCH1) (Homo sapiens, UniProt Q99705); assay: Radioligand binding, human melanin-concentrating hormone MCH1 membranes, FlashPlate, [125I]-S36057; conditions: compound at 10 μM; for A6 radioligand binding inhibition: human MCH1 membranes
T3 construct: purchased Perkin Elmer Biosignal
Summary of the method: as §1

Human neurokinin (NK1) = molecular target: T4, Human neurokinin (NK1) (Homo sapiens, UniProt P25103); assay: Radioligand binding, human neurokinin NK1 membranes, filtration, [125I]-Substance P; conditions: compound at 10 μM; for A8 radioligand binding inhibition: human neurokinin NK1 membranes
T4 construct: purchased Perkin Elmer Biosignal
Summary of the method: (§2)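 Membranes from cloned human receptors were incubated with compound and radioligand for 1 hour at room temperature. Bound ligand was collected on 0.3% PEI-soaked filters, washed with cold 50 mM Tris-HCl pH 7.4, and counted by scintillation. Percent inhibition was computed against DMSO totals and reference-ligand nonspecific wells.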

Human δ-opioid (DOP) = molecular target: T5, Human δ-opioid (DOP) (Homo sapiens, UniProt P41143); assay: Radioligand binding, human δ-opioid (DOP) membranes, FlashPlate, [3H]-Bremazocine; conditions: compound at 10 μM; for A1 radioligand binding inhibition: human δ-opioid (DOP) membranes
T5 construct: purchased Perkin Elmer Biosignal
Summary of the method: as §1

Human Melanocortin (MC4) = molecular target: T6, Human Melanocortin (MC4) (Homo sapiens, UniProt P32245); assay: Radioligand binding, human melanocortin MC4 membranes, FlashPlate, [125I]-NDP-αMSH; conditions: compound at 10 μM; for A4 radioligand binding inhibition: human melanocortin MC4 membranes
T6 construct: purchased Perkin Elmer Biosignal
Summary of the method: as §1

Human κ-Opioid (KOP) = molecular target: T7, Human κ-Opioid (KOP) (Homo sapiens, UniProt P41145); assay: Radioligand binding, human κ-opioid (KOP) membranes, filtration, [3H]-Diprenorphine; conditions: compound at 10 μM; for A2 radioligand binding inhibition: human κ-opioid (KOP) membranes
T7 construct: purchased Perkin Elmer Biosignal
Summary of the method: as §2

Human Melanocortin (MC3) = molecular target: T8, Human Melanocortin (MC3) (Homo sapiens, UniProt P41968); assay: Radioligand binding, human melanocortin MC3 membranes, FlashPlate, [125I]-NDP-αMSH; conditions: compound at 10 μM; for A3 radioligand binding inhibition: human melanocortin MC3 membranes
T8 construct: purchased Perkin Elmer Biosignal
Summary of the method: as §1

Human opioid (ORL1) = molecular target: T9, Human opioid (ORL1) (Homo sapiens, UniProt P41146); assay: Radioligand binding, human opioid ORL1 membranes, FlashPlate, [125I]-Nociceptin; conditions: compound at 10 μM; for A10 radioligand binding inhibition: human ORL1 membranes
T9 construct: purchased Perkin Elmer Biosignal
Summary of the method: as §1

[2] = molecular target: T10, Human neuropeptide Y (NPY-Y1) (Homo sapiens, UniProt P25929); assay: Radioligand binding, human neuropeptide Y NPY-Y1 membranes, FlashPlate, [125I]-PYY; conditions: compound at 10 μM; for A9 radioligand binding inhibition: human NPY-Y1 membranes
T10 construct: purchased Perkin Elmer Biosignal
T10 sequence (P25929 1-384): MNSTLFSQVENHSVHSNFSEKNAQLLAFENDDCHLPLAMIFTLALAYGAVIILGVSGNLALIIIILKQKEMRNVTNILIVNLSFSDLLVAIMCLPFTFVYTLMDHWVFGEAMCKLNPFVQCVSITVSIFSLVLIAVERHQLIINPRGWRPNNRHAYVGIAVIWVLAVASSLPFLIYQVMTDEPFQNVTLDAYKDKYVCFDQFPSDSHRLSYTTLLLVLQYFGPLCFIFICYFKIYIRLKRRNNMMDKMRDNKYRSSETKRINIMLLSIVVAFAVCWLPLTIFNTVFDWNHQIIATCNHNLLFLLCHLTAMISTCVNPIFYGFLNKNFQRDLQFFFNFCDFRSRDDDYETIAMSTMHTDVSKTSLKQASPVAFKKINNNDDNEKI
Summary of the method: as §1

Mouse urotensin (mUR2) = molecular target: T11, Mouse urotensin (mUR2) (Mus musculus, UniProt Q8VIH9); assay: Radioligand binding, mouse urotensin mUR2 membranes, FlashPlate, [125I]-Urotensin II; conditions: compound at 10 μM; for A11 radioligand binding inhibition: mouse urotensin mUR2 membranes
T11 construct: purchased Perkin Elmer Biosignal
T11 sequence (Q8VIH9 1-385): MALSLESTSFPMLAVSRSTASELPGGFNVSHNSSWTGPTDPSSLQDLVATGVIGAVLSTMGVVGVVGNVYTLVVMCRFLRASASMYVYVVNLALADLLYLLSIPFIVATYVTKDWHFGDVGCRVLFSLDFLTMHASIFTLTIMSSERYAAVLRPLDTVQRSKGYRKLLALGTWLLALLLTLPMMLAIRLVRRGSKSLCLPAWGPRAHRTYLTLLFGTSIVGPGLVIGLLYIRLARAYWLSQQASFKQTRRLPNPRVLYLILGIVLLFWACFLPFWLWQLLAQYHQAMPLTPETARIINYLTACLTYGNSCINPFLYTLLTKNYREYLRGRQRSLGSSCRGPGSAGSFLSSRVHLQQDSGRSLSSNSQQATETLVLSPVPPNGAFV
Summary of the method: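 Cloned mouse urotensin (mUR2) receptor membranes from Perkin Elmer Biosignal were immobilized in FlashPlate microplates using a proprietary coating. Each well got 19.5 μl buffer, then 0.5 μl of DMSO, reference ligand, or compound. Adding 5 μl of [125I]-Urotensin II, diluted to 5× final concentration in binding buffer, started binding. Plates were sealed with TopSeal-A and incubated 1 hour at room temperature in the dark. Wells were counted for 30 seconds each on a TopCount after a 60-second delay, and percentage inhibition was calculated.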

T3 sequence (Q99705 whole entry): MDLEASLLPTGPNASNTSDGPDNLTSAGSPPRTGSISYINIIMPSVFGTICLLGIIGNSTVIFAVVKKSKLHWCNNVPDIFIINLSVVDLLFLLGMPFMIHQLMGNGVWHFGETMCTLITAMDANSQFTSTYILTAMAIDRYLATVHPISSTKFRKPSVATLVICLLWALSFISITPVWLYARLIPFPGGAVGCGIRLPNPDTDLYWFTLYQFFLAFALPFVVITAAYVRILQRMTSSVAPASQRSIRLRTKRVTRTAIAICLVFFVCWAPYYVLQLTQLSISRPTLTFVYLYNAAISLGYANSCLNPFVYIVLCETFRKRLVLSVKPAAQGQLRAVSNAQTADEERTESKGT
T4 sequence (P25103 whole entry): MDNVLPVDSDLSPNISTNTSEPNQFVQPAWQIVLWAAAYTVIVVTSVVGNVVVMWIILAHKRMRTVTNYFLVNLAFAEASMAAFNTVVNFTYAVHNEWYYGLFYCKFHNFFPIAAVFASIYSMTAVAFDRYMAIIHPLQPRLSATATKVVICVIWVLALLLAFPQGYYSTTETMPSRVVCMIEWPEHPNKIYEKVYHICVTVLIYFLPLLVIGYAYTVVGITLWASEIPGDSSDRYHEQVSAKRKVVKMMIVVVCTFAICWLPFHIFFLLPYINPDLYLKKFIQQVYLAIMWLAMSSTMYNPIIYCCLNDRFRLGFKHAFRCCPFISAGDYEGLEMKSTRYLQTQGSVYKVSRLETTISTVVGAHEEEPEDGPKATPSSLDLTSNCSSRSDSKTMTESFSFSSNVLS
T1 sequence (P35372 whole entry): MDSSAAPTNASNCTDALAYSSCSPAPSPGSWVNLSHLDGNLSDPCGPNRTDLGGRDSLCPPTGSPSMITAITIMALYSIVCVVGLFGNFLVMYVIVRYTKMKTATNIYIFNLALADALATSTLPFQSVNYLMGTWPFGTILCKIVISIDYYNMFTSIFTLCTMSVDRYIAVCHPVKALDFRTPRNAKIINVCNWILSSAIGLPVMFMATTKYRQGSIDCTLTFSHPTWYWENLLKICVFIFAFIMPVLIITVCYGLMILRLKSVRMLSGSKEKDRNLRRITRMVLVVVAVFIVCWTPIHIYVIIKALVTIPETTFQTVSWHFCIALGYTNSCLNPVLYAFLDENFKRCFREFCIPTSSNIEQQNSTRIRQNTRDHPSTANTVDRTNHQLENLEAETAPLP
T5 sequence (P41143 whole entry): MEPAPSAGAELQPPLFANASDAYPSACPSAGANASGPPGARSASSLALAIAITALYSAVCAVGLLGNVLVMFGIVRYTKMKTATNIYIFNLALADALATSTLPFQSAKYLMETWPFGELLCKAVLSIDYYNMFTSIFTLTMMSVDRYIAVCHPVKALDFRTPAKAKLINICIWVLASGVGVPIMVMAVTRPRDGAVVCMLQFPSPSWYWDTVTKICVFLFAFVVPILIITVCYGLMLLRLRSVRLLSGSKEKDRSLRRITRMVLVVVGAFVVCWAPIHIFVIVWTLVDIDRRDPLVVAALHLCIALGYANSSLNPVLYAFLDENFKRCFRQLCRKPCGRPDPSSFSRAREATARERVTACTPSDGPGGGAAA
T9 sequence (P41146 whole entry): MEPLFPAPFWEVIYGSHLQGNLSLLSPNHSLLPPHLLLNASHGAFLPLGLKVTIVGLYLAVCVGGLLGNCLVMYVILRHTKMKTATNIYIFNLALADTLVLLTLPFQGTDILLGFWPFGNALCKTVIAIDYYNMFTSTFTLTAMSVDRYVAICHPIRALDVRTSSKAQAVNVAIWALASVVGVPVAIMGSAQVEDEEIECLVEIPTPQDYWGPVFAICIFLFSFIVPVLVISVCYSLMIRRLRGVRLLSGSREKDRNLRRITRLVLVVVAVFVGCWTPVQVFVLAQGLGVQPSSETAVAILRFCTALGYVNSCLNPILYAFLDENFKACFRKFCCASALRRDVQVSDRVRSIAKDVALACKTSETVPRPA
T7 sequence (P41145 whole entry): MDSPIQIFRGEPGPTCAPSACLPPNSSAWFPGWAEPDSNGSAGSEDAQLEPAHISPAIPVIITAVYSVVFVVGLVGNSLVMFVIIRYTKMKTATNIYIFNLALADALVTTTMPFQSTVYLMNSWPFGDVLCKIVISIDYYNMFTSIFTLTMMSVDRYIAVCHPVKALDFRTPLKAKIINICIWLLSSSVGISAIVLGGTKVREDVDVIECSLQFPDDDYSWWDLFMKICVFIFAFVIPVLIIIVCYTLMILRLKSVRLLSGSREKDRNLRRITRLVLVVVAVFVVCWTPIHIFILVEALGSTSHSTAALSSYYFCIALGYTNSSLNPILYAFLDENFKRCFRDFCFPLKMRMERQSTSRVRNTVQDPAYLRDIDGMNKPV
T6 sequence (P32245 whole entry): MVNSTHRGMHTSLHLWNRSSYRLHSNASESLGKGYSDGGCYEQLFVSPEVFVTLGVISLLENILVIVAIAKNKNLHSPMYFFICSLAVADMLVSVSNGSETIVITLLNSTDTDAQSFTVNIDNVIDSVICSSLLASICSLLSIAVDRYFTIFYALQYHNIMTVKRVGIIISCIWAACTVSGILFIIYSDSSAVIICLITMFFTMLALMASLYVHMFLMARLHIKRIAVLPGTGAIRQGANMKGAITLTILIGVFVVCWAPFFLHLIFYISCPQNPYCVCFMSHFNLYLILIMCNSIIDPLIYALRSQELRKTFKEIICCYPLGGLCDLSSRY
T2 sequence (P33032 whole entry): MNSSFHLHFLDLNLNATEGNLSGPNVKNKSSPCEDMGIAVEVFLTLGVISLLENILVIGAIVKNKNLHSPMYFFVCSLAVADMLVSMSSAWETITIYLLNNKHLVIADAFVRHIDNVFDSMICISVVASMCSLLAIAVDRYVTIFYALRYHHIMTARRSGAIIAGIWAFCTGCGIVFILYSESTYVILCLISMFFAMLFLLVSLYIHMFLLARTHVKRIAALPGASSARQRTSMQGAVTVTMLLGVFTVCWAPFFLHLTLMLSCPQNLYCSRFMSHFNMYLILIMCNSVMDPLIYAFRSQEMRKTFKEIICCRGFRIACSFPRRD
T8 sequence (P41968 whole entry): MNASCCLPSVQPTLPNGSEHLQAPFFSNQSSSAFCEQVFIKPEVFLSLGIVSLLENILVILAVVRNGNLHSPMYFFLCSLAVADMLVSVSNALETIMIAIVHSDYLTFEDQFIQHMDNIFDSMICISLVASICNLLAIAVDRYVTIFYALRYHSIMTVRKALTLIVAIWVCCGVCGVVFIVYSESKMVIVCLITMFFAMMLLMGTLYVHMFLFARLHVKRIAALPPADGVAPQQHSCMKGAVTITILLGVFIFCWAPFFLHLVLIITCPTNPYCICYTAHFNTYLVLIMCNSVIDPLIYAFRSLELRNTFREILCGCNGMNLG

Structure (SMILES)	A7 radioligand binding inhibition (Human μ-opioid (MOP))	A5 radioligand binding inhibition (Human melanocortin (MC5))	A6 radioligand binding inhibition [1]	A8 radioligand binding inhibition (Human neurokinin (NK1))	A1 radioligand binding inhibition (Human δ-opioid (DOP))	A4 radioligand binding inhibition (Human Melanocortin (MC4))	A2 radioligand binding inhibition (Human κ-Opioid (KOP))	A3 radioligand binding inhibition (Human Melanocortin (MC3))	A10 radioligand binding inhibition (Human opioid (ORL1))	A9 radioligand binding inhibition [2]	A11 radioligand binding inhibition (Mouse urotensin (mUR2))	other results
COC[C@H]1OC(OCc2ccc(-c3ccccc3)cc2)[C@H](NC(=O)CCCN)[C@@H](OCc2ccc(-c3ccccc3)cc2)[C@@H]1O (stereo partly drawn) [compound 2]	− (“−” indicates less than 50% inhibition at 10 μM)	+ (“+” indicates greater than 50% inhibition at 10 μM)	+ (“+” indicates greater than 50% inhibition at 10 μM)	+ (“+” indicates greater than 50% inhibition at 10 μM)	− (“−” indicates less than 50% inhibition at 10 μM)	+ (“+” indicates greater than 50% inhibition at 10 μM)	− (“−” indicates less than 50% inhibition at 10 μM)	− (“−” indicates less than 50% inhibition at 10 μM)	− (“−” indicates less than 50% inhibition at 10 μM)	− (“−” indicates less than 50% inhibition at 10 μM)	− (“−” indicates less than 50% inhibition at 10 μM)	
NCCC(=O)NC1C(OCc2ccccc2)OC(COCc2ccccc2)C(O)C1OCc1ccc2ccccc2c1 (stereo not drawn) [compound 367]												A7: inhibition of radioligand binding, human μ-opioid (MOP) (Human μ-opioid (MOP); [3H]-Naloxone): − (“−” indicates less than 50% inhibition at 10 μM); A5: inhibition of radioligand binding, human melanocortin (MC5) (Human melanocortin (MC5); [125I]-NDP-αMSH): + (“+” indicates greater than 50% inhibition at 10 μM); A6: inhibition of radioligand binding, human melanin-concentrating hormone (MCH1) ([1]; [125I]-S36057): − (“−” indicates less than 50% inhibition at 10 μM); A8: inhibition of radioligand binding, human neurokinin (NK1) (Human neurokinin (NK1); [125I]-Substance P): + (“+” indicates greater than 50% inhibition at 10 μM); A1: inhibition of radioligand binding, human δ-opioid (DOP) (Human δ-opioid (DOP); [3H]-Bremazocine): − (“−” indicates less than 50% inhibition at 10 μM); A4: inhibition of radioligand binding, human melanocortin (MC4) (Human Melanocortin (MC4); [125I]-NDP-αMSH): + (“+” indicates greater than 50% inhibition at 10 μM); A2: inhibition of radioligand binding, human κ-opioid (KOP) (Human κ-Opioid (KOP); [3H]-Diprenorphine): − (“−” indicates less than 50% inhibition at 10 μM); A3: inhibition of radioligand binding, human melanocortin (MC3) (Human Melanocortin (MC3); [125I]-NDP-αMSH): − (“−” indicates less than 50% inhibition at 10 μM); A10: inhibition of radioligand binding, human opioid (ORL1) (Human opioid (ORL1); [125I]-Nociceptin): − (“−” indicates less than 50% inhibition at 10 μM); A9: inhibition of radioligand binding, human neuropeptide Y (NPY-Y1) ([2]; [125I]-PYY): − (“−” indicates less than 50% inhibition at 10 μM); A11: inhibition of radioligand binding, mouse urotensin (mUR2) (Mouse urotensin (mUR2); [125I]-Urotensin II): − (“−” indicates less than 50% inhibition at 10 μM)
CO[C@H]1[C@H](O)[C@@H](COCc2ccccc2)OC(OCc2ccc(-c3ccccc3)cc2)[C@@H]1NC(=O)CCCN (stereo partly drawn) [compound 60]	− (“−” indicates less than 50% inhibition at 10 μM)	+ (“+” indicates greater than 50% inhibition at 10 μM)	− (“−” indicates less than 50% inhibition at 10 μM)	− (“−” indicates less than 50% inhibition at 10 μM)	− (“−” indicates less than 50% inhibition at 10 μM)	− (“−” indicates less than 50% inhibition at 10 μM)	− (“−” indicates less than 50% inhibition at 10 μM)	− (“−” indicates less than 50% inhibition at 10 μM)	− (“−” indicates less than 50% inhibition at 10 μM)	− (“−” indicates less than 50% inhibition at 10 μM)	− (“−” indicates less than 50% inhibition at 10 μM)	
